Source: publication PMC8012596, “Hypouricemic agents reduce indoxyl sulfate excretion by inhibiting the renal transporters OAT1/3 and ABCG2” (Scientific Reports, 2021)
Counter-ions that a name gives are not always drawn. Like-named read-outs stand apart in the source and are kept apart here.

Assays:
intact rats [1] = experiment: Effect of hypouricemic agents on endogenous IS pharmacokinetics in intact rats; details: for Effect on plasma concentration of endogenous IS: in words; for Kidney IS concentration compared with control: endogenous IS, at 4 h
Experimental: Thirty minutes after drug administration, 0.3 mg/kg d^4-IS dissolved in saline was intravenously administered via the tail vein to all rats. Blood samples were obtained from the jugular vein at 0.083, 0.25, 0.5, 1, 2, and 4 h after d^4-IS administration using a heparinized needle and kept on ice, and then the kidney was isolated with the rats under isoflurane anesthesia. Plasma was obtained by centrifuging the blood samples at 1000 × g for 10 min at 4 °C. To prepare the kidney sample, 4-times volume of saline was added to the sample and homogenized.
Endogenous IS and d^4-IS were determined in these samples as previously described with slightly modifications[10]. Briefly, the plasma and kidney homogenates were deproteinized using the internal standard containing methanol. These samples were measured using a liquid chromatography-tandem mass spectrometry (LC–MS/MS) systems consisting of a Nexera X2 and a Prominence instrument (Shimadzu Corp., Kyoto, Japan) coupled with QTRAP4500 (AB SCIEX, LLC., Framingham, MA). Pharmacokinetic parameters (AUC0-4 hr, C0, V0, T1/2, and CLtot) were analyzed using the Phoenix WinNonlin 6.4 software (Certara, L.P., Princeton, NJ). Some pharmacokinetic parameters were calculated using the following equations, in which "IS" means endogenous IS or d^4-IS. CLR, plasma = (urine IS concentration × urine volume) / AUC0-4 hr. CLR, kidney = (urine IS concentration × urine volume) / (kidney IS concentration at 4 h × 4). Kp = kidney IS concentration at 4 h / plasma IS concentration at 4 h.

[2] = Plasma concentration of hypouricemic agents in intact and adenine-induced acute renal failure rats; format: in vivo, Wistar rats; details: Supplemental Fig. 2; in words
Experimental: Supplemental Fig. 1 Full-length blots/gels of renal expression of OAT1 (A/D), OAT3 (B/E), and ABCG2 (C/F) protein in intact and adenine-induced acute renal failure rats The chemiluminescence in blots and the proteins in gels were detected using ChemiDoc XRS Plus (Bio-Rad Laboratories, Inc.).
Supplemental Fig. 2 Plasma concentration of hypouricemic agents in intact rats and adenine-induced acute renal failure rats
Plasma drug concentration was measured using the same samples for measuring endogenous IS and d4-IS. Plasma samples were deproteinated with thrice volume of methanol and centrifuged at 1,000 × g for 10 min at 4°C. Drug concentrations were measured using the Alliance 2695 HPLC system (Waters Corporation. Milford, MA).

intact rats [3] = experiment: Effect of hypouricemic agents on pharmacokinetics of intravenously administered d4-IS in intact rats; format: in vivo, Wistar rats; set-up: concentration or dose not given beside the values
[4] = set-up: method as in Pharmaceuticals and Medical Devices Agency; details: ref Pharmaceuticals and Medical Devices Agency, read-out: Cmax at clinical dose, cited from earlier work
[5] = system: adenine-induced acute renal failure rats; experiment: Effect of hypouricemic agents on pharmacokinetics of d4-IS in adenine-induced acute renal failure rats; format: in vivo, Wistar rats; details: in words
Experimental: Wistar rats were orally administered 600 mg/kg of adenine, once daily for 5 days. One week after the last administration, urine samples were collected for 4 h. Furthermore, blood samples were obtained from the jugular vein under the isoflurane anesthesia. […] Creatinine level in the plasma and urine was measured using the U-3900 spectrophotometer (Hitachi High-Tech Science Corp., Tokyo, Japan) with the L-type Wako Creatinine F kit (Wako Pure Chemical Industries, Ltd., Osaka, Japan). Creatinine clearance (CLCRE) was calculated using the following equation: CLCRE = [urine creatinine level (mg/dl) × urine volume (ml/min)] / plasma creatinine level (mg/dl) / body weight (kg). […] Four days later, the rats were selected based on the weight and serum creatinine level, and used in the study. In the intact group, the rats were used 4 days after the urine and blood sampling.

[6] = set-up: method as in Pharmaceuticals and Medical Devices Agency; details: ref Pharmaceuticals and Medical Devices Agency; cited from earlier work
[7] = set-up: method as in PMID 29016645; details: in humans; cited from earlier work

In the case of `CCc1oc2ccccc2c1C(=O)c1cc(Br)c(O)c(Br)c1` [Benzbromarone], the “Effect on plasma concentration of endogenous IS” value (“Effect … of endogenous IS” for short) (intact rats [1]) is reported as “did not have any effects”, the “Plasma concentrations of the drugs in adenine-induced acute renal failure rats versus intact rats” value [2] is reported as “not lower than those in intact rats” and the “Decrease of CLR, plasma of d4-IS compared with control” value (shortened to “Decrease of CLR, plasma of d4-IS”) (intact rats [3]) is reported as 43%. For the same compound, the “Decrease of CLtot of d4-IS compared with control” value (from here on “Decrease of CLtot of d4-IS”) (intact rats [3]) was 34%.

For `O=C(c1cc(Cl)c(O)c(Cl)c1)N1CS(=O)(=O)c2ccccc21` [Dotinurad], the Cmax ([4]; Cmax of q.d. administration, at a dose of 4 mg, for 1 weeks) is listed as 1.2 µM, the “Effect … of endogenous IS” value (intact rats [1]) is listed as “did not have any effects” and the “Effect on plasma concentration of d4-IS” value [5] is listed as “did not have any effect”. The “fu (unbound fraction rate)” value [6] was 0.007.

In the case of `Cc1nc(-c2ccc(OCC(C)C)c(C#N)c2)sc1C(=O)O` [Febuxostat], the “Decrease of CLR, kidney of endogenous IS compared with control” value (intact rats [1]) is reported as 93%, the “Decrease of CLR, plasma of endogenous IS compared with control” value (intact rats [1]) is reported as 39% and the “Increase of AUC0-4 hr of endogenous IS compared with control” value (intact rats [1]) is reported as 85%. The “Kidney IS concentration compared with control” value (intact rats [1]) was 15.1 times, the “Effect … of endogenous IS” value (intact rats [1]) was “significantly increased” and the “Plasma concentrations of the drugs in adenine-induced acute renal failure rats versus intact rats” value [2] was “not lower than those in intact rats”. The “Decrease of CLR, kidney of d4-IS compared with control” value (intact rats [3]) was 94%, the “Decrease of CLR, plasma of d4-IS” value (intact rats [3]) was 35% and the “Decrease of CLtot of d4-IS” value (intact rats [3]) was 44%.

For `O=S(=O)(O)Oc1c[nH]c2ccccc12` [IS, Indoxyl sulfate], the “plasma protein binding ratio” value [7] is listed as 93%.

In the case of `CCCN(CCC)S(=O)(=O)c1ccc(C(=O)O)cc1` [Probenecid], the Cmax ([4]; mean concentration of q.i.d. administration, at a dose of 2 g, for 4 weeks) is given as 79 µM, the “Decrease of CLR, plasma of endogenous IS compared with control” value (intact rats [1]) is given as 73% and the “Increase of AUC0-4 hr of endogenous IS compared with control” value (intact rats [1]) is given as 244%. For the same compound, the “Kidney IS concentration compared with control” value (intact rats [1]) was 1.7 times, the “Effect … of endogenous IS” value (intact rats [1]) was “significantly increased” and the “Plasma concentrations of the drugs in adenine-induced acute renal failure rats versus intact rats” value [2] was “not lower than those in intact rats”. The “Effect on plasma concentration of d4-IS” value [5] was “moderate but significant increase”, the “Decrease of CLR, plasma of d4-IS” value (intact rats [3]) was 78% and the “Decrease of CLtot of d4-IS” value (intact rats [3]) was 80%. For the same compound, the “fu (unbound fraction rate)” value [6] was 0.11.
